Measurements taken from patent US12201707B2, “Nano-emulsion composition for tooth whitening and method for producing the same” (AMOREPACIFIC CORPORATION, priority 2021, dated 2025).

Test: Tooth whitening test
Description: Discoloration was induced by immersing 12 hydroxyapatite (HAP) discs in black tea. Subsequently, the four discolored discs were immersed in vials containing each of the nanoemulsion composition of Example 31, a nanoemulsion composition in which oxygen was not captured as a control (control group 1), distilled water as a control (control group 2), and 3% hydrogen peroxide as a control (control group 3), respectively. The lightness values (L values) of the discs were measured on days 0, 2, 4 and 6 using a spectrophotometer. Before each measurement, the discs were completely dried at 55° C. for 1 hour using an oven.

## OO [Control 3, hydrogen peroxide]
Day 0
  lightness value (L value) of disc: 72.9
Day 2
  lightness value (L value) of disc: 84.3
Day 4
  lightness value (L value) of disc: 92.96
Day 6
  lightness value (L value) of disc: 97.48
